Laboratory results: ChEMBL document CHEMBL5131402, “Design, synthesis, and biological evaluation of phenyl thiazole-based AR-V7 degraders” (Bioorg Med Chem Lett, 2022)
In brackets after ≈: the same amount, converted by molar mass.

Columns and labels:
[1] = tested on: CWR22R; assay: Antiproliferative activity against human 22Rv1 cells expressing […]; type: functional, cell-based
[2] = target: von Hippel-Lindau disease tumor suppressor/Androgen receptor (Homo sapiens, UniProt P10275+P40337); assay: PROTAC activity at VHL/AR-V7 (unknown origin) expressed in human 22Rv1 cells assessed as induction of AR-V7 degradation; type: cell-based
Sequence of von Hippel-Lindau disease tumor suppressor/Androgen receptor (P10275 whole entry, looked up, change not shown): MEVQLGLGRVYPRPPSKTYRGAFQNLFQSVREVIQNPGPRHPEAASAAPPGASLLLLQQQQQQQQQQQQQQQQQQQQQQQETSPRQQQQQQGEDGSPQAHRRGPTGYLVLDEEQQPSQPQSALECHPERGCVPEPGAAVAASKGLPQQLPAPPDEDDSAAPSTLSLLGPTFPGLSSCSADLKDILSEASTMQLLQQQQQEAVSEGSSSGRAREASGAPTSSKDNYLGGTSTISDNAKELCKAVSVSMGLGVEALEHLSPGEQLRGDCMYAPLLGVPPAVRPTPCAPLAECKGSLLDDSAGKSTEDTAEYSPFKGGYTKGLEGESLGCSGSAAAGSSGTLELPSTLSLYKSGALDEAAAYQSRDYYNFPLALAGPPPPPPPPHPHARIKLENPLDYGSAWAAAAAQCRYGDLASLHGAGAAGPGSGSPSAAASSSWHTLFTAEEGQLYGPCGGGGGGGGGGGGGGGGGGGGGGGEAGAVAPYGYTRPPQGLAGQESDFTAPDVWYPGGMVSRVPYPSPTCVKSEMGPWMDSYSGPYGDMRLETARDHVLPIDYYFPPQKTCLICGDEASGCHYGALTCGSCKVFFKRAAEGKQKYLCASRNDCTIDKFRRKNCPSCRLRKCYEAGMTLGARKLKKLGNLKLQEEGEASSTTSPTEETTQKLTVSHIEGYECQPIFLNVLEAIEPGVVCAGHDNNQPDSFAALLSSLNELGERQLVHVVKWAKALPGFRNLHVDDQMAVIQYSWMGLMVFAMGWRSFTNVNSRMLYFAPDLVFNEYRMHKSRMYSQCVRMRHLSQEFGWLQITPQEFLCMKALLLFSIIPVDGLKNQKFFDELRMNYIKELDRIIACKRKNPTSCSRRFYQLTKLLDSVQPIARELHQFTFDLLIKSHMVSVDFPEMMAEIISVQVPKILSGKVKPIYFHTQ
Sequence of von Hippel-Lindau disease tumor suppressor/Androgen receptor (P40337 whole entry, looked up, change not shown): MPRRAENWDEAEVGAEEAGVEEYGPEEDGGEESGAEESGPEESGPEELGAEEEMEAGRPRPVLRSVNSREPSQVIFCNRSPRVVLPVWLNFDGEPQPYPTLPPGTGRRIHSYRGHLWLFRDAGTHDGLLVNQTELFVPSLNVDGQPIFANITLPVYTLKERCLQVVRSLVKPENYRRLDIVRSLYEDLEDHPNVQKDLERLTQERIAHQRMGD

[3] = tested on: von Hippel-Lindau disease tumor suppressor/Androgen receptor (Homo sapiens), P10275+P40337 [UNDEFINED MUTATION]; assay: PROTAC activity at VHL/AR-V7 (unknown origin) expressed in human 22Rv1 cells assessed as induction of AR-V7 degradation my measuring maximum efficacy relative to control; type: cell-based
Sequence of von Hippel-Lindau disease tumor suppressor/Androgen receptor (Homo sapiens), P10275+P40337 [UNDEFINED MUTATION] (P10275 whole entry, looked up, change not shown): as the sequence (P10275 whole entry, looked up, change not shown) above
Sequence of von Hippel-Lindau disease tumor suppressor/Androgen receptor (Homo sapiens), P10275+P40337 [UNDEFINED MUTATION] (P40337 whole entry, looked up, change not shown): as the sequence (P40337 whole entry, looked up, change not shown) above

[4] = Metabolic stability in mouse liver microsomes assessed as parent compound remaining measured at 1 hr; type: ADME, Microsome; conditions: read-out: Stability
[5] = tested on: CWR22R; assay: Antiproliferative activity against human 22Rv1 cells expressing […] assessed as maximum efficacy relative to control; type: functional
[6] = Aqueous solubility of the compound at pH.7.4; type: physicochemical
[7] = tested on: CWR22R; assay: Antiproliferative activity against human 22Rv1 cells expressing […] assessed as inhibition of cell growth at 10 uM relative to control; type: functional
[8] = AUC (0 to infinity) in CD1 mouse at 100 mg/kg, po administered as single dose; type: ADME, organism-based; set-up: time infinity, dose 100 mg/kg, route po; conditions: in vivo
[9] = Cmax in CD1 mouse at 100 mg/kg, po administered as single dose; type: ADME, organism-based; set-up: dose 100 mg/kg, route po; conditions: in vivo
[10] = AUC (0 to infinity) in CD1 mouse at 30 mg/kg, po administered as single dose; type: ADME, organism-based; set-up: time infinity, dose 30 mg/kg, route po; conditions: in vivo
[11] = Oral bioavailability in CD1 mouse at 100 mg/kg administered as single dose; type: ADME, organism-based; conditions: in vivo
[12] = Tmax in CD1 mouse at 100 mg/kg, po administered as single dose; type: ADME, organism-based; conditions: in vivo
[13] = Cmax in CD1 mouse at 30 mg/kg, po administered as single dose; type: ADME, organism-based; set-up: dose 30 mg/kg, route po; conditions: in vivo
[14] = Terminal half life in CD1 mouse at 30 mg/kg, po administered as single dose; type: ADME, organism-based; conditions: in vivo, read-out: beta t1/2 (converted)
[15] = AUC (0 to infinity) in CD1 mouse at 1 mg/kg, iv administered as single dose; type: ADME, organism-based; set-up: time infinity, dose 1 mg/kg, route iv; conditions: in vivo
[16] = Terminal half life in CD1 mouse at 100 mg/kg, po administered as single dose; type: ADME, organism-based; conditions: in vivo, read-out: beta t1/2 (converted)
[17] = Tmax in CD1 mouse at 30 mg/kg, po administered as single dose; type: ADME, organism-based; conditions: in vivo
[18] = Terminal half life in CD1 mouse at 1 mg/kg, iv administered as single dose; type: ADME, organism-based; conditions: in vivo, read-out: beta t1/2 (converted)
[19] = Oral bioavailability in CD1 mouse at 30 mg/kg administered as single dose; type: ADME, organism-based; conditions: in vivo
[20] = Cmax in CD1 mouse at 1 mg/kg, iv administered as single dose; type: ADME, organism-based; set-up: dose 1 mg/kg, route iv; conditions: in vivo

DC50 [2] | SMILES | EC50 [1] | also measured
 | Cc1ncsc1-c1ccc([C@H](C)NC(=O)[C@@H]2C[C@@H](O)CN2C(=O)[C@@H](NC(=O)CCCCOc2ccc(-c3csc(N4CC(C)OC(C)C4)n3)cc2)C(C)(C)C)cc1 (stereo partly specified) | > 10 µM | 
 | Cc1ncsc1-c1ccc(CNC(=O)[C@@H]2C[C@@H](O)CN2C(=O)[C@@H](NC(=O)C2(F)CC2)C(C)(C)C)c(OCCCCOc2ccc(-c3csc(N4CCOCC4)n3)cc2)c1 | > 10 µM | 
 | Cc1ncsc1-c1ccc([C@H](C)NC(=O)[C@@H]2C[C@@H](O)CN2C(=O)[C@@H](NC(=O)CCCCOc2ccc(-c3csc(N4CCOCC4)n3)cc2F)C(C)(C)C)cc1 | > 10 µM | 
> 10 µM | Cc1ncsc1-c1ccc([C@H](C)NC(=O)[C@@H]2C[C@@H](O)CN2C(=O)[C@@H](NC(=O)CCCCOc2ccc(-c3csc(N4CCOCC4C)n3)cc2)C(C)(C)C)cc1 (stereo partly specified) | > 10 µM | 
 | Cc1ncsc1-c1ccc([C@H](C)NC(=O)[C@@H]2C[C@@H](O)CN2C(=O)[C@@H](NC(=O)CCCCOc2ccc(-c3csc(N4CCOCC4)n3)cc2N)C(C)(C)C)cc1 | > 10 µM | 
 | Cc1cc(OCCCCC(=O)N[C@H](C(=O)N2C[C@H](O)C[C@H]2C(=O)N[C@@H](C)c2ccc(-c3scnc3C)cc2)C(C)(C)C)ccc1-c1csc(N2CCOCC2)n1 | > 10 µM | 
 | Cc1ncsc1-c1ccc(CNC(=O)[C@@H]2C[C@@H](O)CN2C(=O)[C@@H](NC(=O)C2(F)CC2)C(C)(C)C)c(OCCCCCCCCOc2ccc(-c3csc(N4CCOCC4)n3)cc2)c1 | > 10 µM | 
 | Cc1ncsc1-c1ccc(CNC(=O)[C@@H]2C[C@@H](O)CN2C(=O)[C@@H](NC(=O)C2(F)CC2)C(C)(C)C)c(OCCOc2ccc(-c3csc(N4CCOCC4)n3)cc2)c1 | > 10 µM | 
> 10 µM | Cc1ncsc1-c1ccc([C@H](C)NC(=O)[C@@H]2C[C@@H](O)CN2C(=O)[C@@H](NC(=O)c2ccc(-c3csc(N4CCOCC4)n3)cc2)C(C)(C)C)cc1 |  | 
 | Cc1ncsc1-c1ccc([C@H](C)NC(=O)[C@@H]2C[C@@H](O)CN2C(=O)[C@@H](NC(=O)CCCCOc2ccc(-c3csc(N4CCC5(COC5)C4)n3)cc2)C(C)(C)C)cc1 | > 10 µM | 
1 µM | Cc1ncsc1-c1ccc([C@H](C)NC(=O)[C@@H]2C[C@@H](O)CN2C(=O)[C@@H](NC(=O)CCCCCOc2ccc(-c3csc(N4CCOCC4)n3)cc2)C(C)(C)C)cc1 |  | Emax [3]: 60%
 | Cc1ncsc1-c1ccc(CNC(=O)[C@@H]2C[C@@H](O)CN2C(=O)[C@@H](NC(=O)C2(F)CC2)C(C)(C)C)c(OCCCCCCOc2ccc(-c3csc(N4CCOCC4)n3)cc2)c1 | > 10 µM | 
0.35 µM | Cc1ncsc1-c1ccc([C@H](C)NC(=O)[C@@H]2C[C@@H](O)CN2C(=O)[C@@H](NC(=O)CCCOc2ccc(-c3csc(N4CCOCC4)n3)cc2)C(C)(C)C)cc1 | 1.36 µM | remaining at 1 h [4]: 5%; Emax [3]: 53%; Emax [5]: 90%; solubility [6]: < 2 µM
 | CCC1COCCN1c1nc(-c2ccc(OCCCCC(=O)N[C@H](C(=O)N3C[C@H](O)C[C@H]3C(=O)N[C@@H](C)c3ccc(-c4scnc4C)cc3)C(C)(C)C)cc2)cs1 (stereo partly specified) | > 10 µM | 
 | Cc1ncsc1-c1ccc([C@H](C)NC(=O)[C@@H]2C[C@@H](O)CN2C(=O)[C@@H](NC(=O)CCCCOc2ccc(-c3csc(N4CCOCC4)n3)c(F)c2)C(C)(C)C)cc1 | > 10 µM | 
> 10 µM | COc1c(-c2csc(N3CCOCC3)n2)ccc(OCCCCC(=O)N[C@H](C(=O)N2C[C@H](O)C[C@H]2C(=O)N[C@@H](C)c2ccc(-c3scnc3C)cc2)C(C)(C)C)c1F | > 10 µM | 
 | Cc1ncsc1-c1ccc([C@H](C)NC(=O)[C@@H]2C[C@@H](O)CN2C(=O)[C@@H](NC(=O)CCCCOc2ccc(-c3csc(N4CCOCC4)n3)cc2[N+](=O)[O-])C(C)(C)C)cc1 | > 10 µM | 
 | Cc1ncsc1-c1ccc([C@H](C)NC(=O)[C@@H]2C[C@@H](O)CN2C(=O)[C@@H](NC(=O)CCCCOc2ccc(-c3csc(N4CC5(COC5)C4)n3)cc2)C(C)(C)C)cc1 | > 10 µM | 
> 10 µM | Cc1ncsc1-c1ccc([C@H](C)NC(=O)[C@@H]2C[C@@H](O)CN2C(=O)[C@@H](NC(=O)CCCCOc2ccc(-c3csc(N4CC5CCC(C4)O5)n3)cc2)C(C)(C)C)cc1 | > 10 µM | 
> 10 µM | Cc1ncsc1-c1ccc([C@H](C)NC(=O)[C@@H]2C[C@@H](O)CN2C(=O)[C@@H](NC(=O)CCOc2ccc(-c3csc(N4CCOCC4)n3)cc2)C(C)(C)C)cc1 |  | 
> 10 µM | c1ccc(-c2csc(N3CCOCC3)n2)cc1 |  | 
> 10 µM | Cc1ncsc1-c1ccc([C@H](C)NC(=O)[C@@H]2C[C@@H](O)CN2C(=O)[C@@H](NC(=O)CCCCOc2ccc(-c3csc(N4CCOC(C)(C)C4)n3)cc2)C(C)(C)C)cc1 |  | inhibition at 10 µM [7]: 66%
 | Cc1ncsc1-c1ccc([C@H](C)NC(=O)[C@@H]2C[C@@H](O)CN2C(=O)[C@@H](NC(=O)CCCCOc2ccc(-c3csc(N4CC(C)OCC4C)n3)cc2)C(C)(C)C)cc1 (stereo partly specified) | > 10 µM | 
 | Cc1ncsc1-c1ccc([C@H](C)NC(=O)[C@@H]2C[C@@H](O)CN2C(=O)[C@@H](NC(=O)CCCCOc2ccc(-c3csc(N4CCOC(C)C4)n3)cc2)C(C)(C)C)cc1 (stereo partly specified) | > 10 µM | 
 | Cc1ncsc1-c1ccc(CNC(=O)[C@@H]2C[C@@H](O)CN2C(=O)[C@@H](NC(=O)C2(F)CC2)C(C)(C)C)c(OCCCOc2ccc(-c3csc(N4CCOCC4)n3)cc2)c1 | > 10 µM | 
> 10 µM | Cc1ncsc1-c1ccc([C@H](C)NC(=O)[C@@H]2C[C@@H](O)CN2C(=O)[C@@H](NC(=O)COc2ccc(-c3csc(N4CCOCC4)n3)cc2)C(C)(C)C)cc1 |  | 
0.32 µM | Cc1ncsc1-c1ccc([C@H](C)NC(=O)[C@@H]2C[C@@H](O)CN2C(=O)[C@@H](NC(=O)CCCCOc2ccc(-c3csc(N4CCOCC4)n3)cc2)C(C)(C)C)cc1 | 0.88 µM | AUC(0-inf) [8]: 5950 ng·h/mL; Cmax [9]: 1810 ng/mL; AUC(0-inf) [10]: 1980 ng·h/mL; remaining at 1 h [4]: 6%; bioavailability [11]: 4.6%; Emax [3]: 67%; Tmax [12]: 79.8 min; Cmax [13]: 773 ng/mL; half-life [14]: 60 min; AUC(0-inf) [15]: 1290 ng·h/mL; Emax [5]: 94%; half-life [16]: 42 min; solubility [6]: 3.5 µM (≈ 2.76 µg/mL); Tmax [17]: 45 min; half-life [18]: 54 min; bioavailability [19]: 5%; Cmax [20]: 2900 ng/mL
 | Cc1ncsc1-c1ccc([C@H](C)NC(=O)[C@@H]2C[C@@H](O)CN2C(=O)[C@@H](NC(=O)CCCCOc2ccc(-c3csc(N4CC5(CCOCC5)C4)n3)cc2)C(C)(C)C)cc1 | > 10 µM | 
